In patent publication US20180049996A1, “THERAPEUTIC AGENT FOR CHRONIC RESPIRATORY DISEASE AND COMPOSITION FOR INHIBITING CARDIAC FIBROSIS” (NIPPON HYPOX LABORATORIES INCORPORATED, priority 2015, published 2018):

What was measured:
sputum excretion = test: Sputum excretion action (phenol red excretion from trachea sections, method of Engler et al.); format: in vivo, male ICR mice; conditions: ambroxol 250 mg/kg oral single dose; relative to negative control; significant increase
Procedure: The hydroquinone derivative of the present invention was orally administered to 8 week old male ICR mice in a single dose, and the sputum excretion action was evaluated according to the method of Engler et al. (Engler H, Szelenyi I, J.Pharmacol. Moth. 11, 151-157, 1984).
Specifically, the test was conducted as follows. The test material was orally administered to the mice in the control group and the test groups, i.e., an aqueous solution of 2% gum arabic was administered to the mice in the negative control group, and 2,3,5-trimethylhydroquinone-1-hexyl ether (HTHQ), the test substance, was orally administered to the mice in the HTHQ-administered groups at 100 mg/kg body weight, 200 mg/kg body weight and 400 mg/kg body weight, respectively. Ambroxol (a product from Sigma-Aldrich) was orally administered to the mice in the ambroxol administered group at 250 mg/kg body weight. Here, ambroxol is a substance having expectoration action and has been selected as a positive control substance. 30 minutes after the oral administration of the test material, saline in which phenol red (a product from Sigma-Aldrich) was dissolved at a concentration of 0.05 g/mL was intraperitoneally administered at 15 mL/kg. Then, 30 minutes after the administration of phenol red, the mice were euthanized by inhalation of carbon dioxide, and the tracheae were extirpated. Given sites of the extirpated tracheae were cut into sections of fixed size to obtain trachea sections. The obtained trachea sections were added to centrifugation tubes, and 1 mL of saline was added there, and the mixture was sonicated using a ultrasonic washing machine for 15 minutes. After the centrifugation of 5 minutes at 10000 rpm, 0.5 mL of a upper layer solution was dispensed to the centrifugation tubes and 0.05 mL of 1 N sodium hydroxide was added to the tubes. After stirring with a vortex mixer, 0.2 mL of a sample was dispensed to a 96 well plate, and absorbance was measured at 546 nm using a micro plate reader (a product from BioTek Instruments, Inc). The amounts of phenol red excreted from the trachea sections of the mice in the control group and test groups were calculated by extrapolating the measured absorbance to the standard curve based on the absorbance of phenol red reference standard ([…], 2.3 and 1.2 ng/mL). The amounts of phenol red excreted from the trachea sections were substituted in the following formula to calculate the sputum excretion ability of the test material. The formula to calculate the sputum excretion ability is as follows: “sputum excretion ability(%)={(A/B)−1}×100” wherein A is the amounts of phenol red of the test material administered groups (an average) and B is the amount of phenol red of the negative control group (an average).

[1] = tested on: Pulmonary Fibrosis Induced by Bleomycin; test: Body weight and relative weight of lungs, pulmonary fibrosis induced by bleomycin; format: in vivo, male SD rats
Procedure: (§1) Bleomycin is used to produce disease-model animals of interstitial pneumonia. The bleomycin and 2,3,5-trimethylhydroquinone-1-hexyl ether (HTHQ) as the hydroquinone derivative represented by the general formula (1) described above of the present invention were simultaneously administered to male SD rats of 10 week old after birth to examine the effect of the action. The test groups consisted of the control group to which sterile saline was administered; test group 1 to which bleomycin (7.5 mg/kg body weight) alone was administered; test group 2 to which bleomycin (7.5 mg/kg body weight) and HTHQ (50 mg/kg body weight/day) were administered in combination; and test group 3 to which bleomycin (7.5 mg/kg body weight) and HTHQ (200 mg/kg body weight/day) were administered in combination.
(§2) In test groups 1 to 3, bleomycin was orally administered in a single dose. In test groups 2 and 3, 2,3,5-trimethylhydroquinone-1-hexyl ether (HTHQ) was daily orally administered for 10 or 20 days starting from 24 h after the administration of bleomycin. In test group 1, olive oil, which was used as a solvent of HTHQ, was daily orally administered at 10 mL/kg/day starting from 24 h after the administration of bleomycin. The number of animals in each group was 16. 8 animals of each group were sacrificed on days 10 and 20 after the administration of bleomycin and measurement of body weight, lung autopsy, histopathologic examination of lungs and bronchoalveolar lavage examination were conducted.
The body weight of the rats in the control group increased over time during the test period. […] The weight of the interstitial tissue of lungs tends to increase and the relative weight of lungs tends to rise when the tissue fibroses. […] Thus, it was expected that the degree of the progression of pulmonary fibrosis of the rats in test groups 2 and 3, to which HTHQ was administered, was less than the rats in test group 1.

[2] = tested on: Pulmonary Fibrosis Induced by Bleomycin; test: Gross pathology of lungs, pulmonary fibrosis induced by bleomycin; format: in vivo, male SD rats; conditions: Test group 1: bleomycin 7.5 mg/kg alone; day 20
Procedure: as §1
In test groups 1 to 3, bleomycin was orally administered in a single dose. In test groups 2 and 3, 2,3,5-trimethylhydroquinone-1-hexyl ether (HTHQ) was daily orally administered for 10 or 20 days starting from 24 h after the administration of bleomycin. In test group 1, olive oil, which was used as a solvent of HTHQ, was daily orally administered at 10 mL/kg/day starting from 24 h after the administration of bleomycin. The number of animals in each group was 16. […]

[3] = tested on: Pulmonary Fibrosis Induced by Bleomycin; test: Histopathologic examination of lungs, pulmonary fibrosis induced by bleomycin; format: in vivo, male SD rats; conditions: Test group 1: bleomycin 7.5 mg/kg alone
Procedure: as §1, §2
The main lung lesions observed in the rats in test group 1 (the bleomycin-single administration group) on day 10 after the administration were the peribronchial and peribronchiola enlargement of alveoli, the hyperplasia of the alveolar wall, the infiltration of monocytes and lymphocytes in alveolar walls and interstitial tissue, and the exudation of alveolar macrophage into alveolar spaces. These lesions were alleviated in rats in test groups 2 and 3 (the HTHQ-administered groups) compared to the tissue in test group 1.
The result of the histopathologic examination of lungs of the control group and the test groups on day 20 after the administration of bleomycin is shown in Table 1 below. “−” indicates “not found”, “+” indicates “mild”, “++” indicates “moderate”, and “+++” indicates “severe” in severity scores. In test group 1 (the bleomycin-single administration group), the hyperplasia and fibrosis of peribronchial and adjacent alveolar walls became remarkable compared to the tissue on day 10 after the administration and the morphology of alveolus almost disappeared due to the infiltration of lymphocytes and neutrophils. The alveolar macrophages infiltrated within alveolar spaces were buried in surrounding tissues.

[4] = tested on: Pulmonary Fibrosis Induced by Bleomycin; test: Bronchoalveolar lavage (BAL) examination, cell numbers, pulmonary fibrosis induced by bleomycin; format: in vivo, male SD rats
Procedure: as §1, §2
Bronchoalveolar lavage (BAL) examination was conducted on the rats in the control group and the test groups. When interstitial pneumonia developed, the infiltration of inflammatory cells occurs and thus the total cell number in BAL fluid increases. The total cell numbers on day 10 after the administration of bleomycin were as follows: 2×10^5 cells in the control group, 9×10^5 cells in test group 1 (the bleomycin-single administration group), 6.5×10^5 cells in test group 2 (the low-dose HTHQ-administered group, 50 mg/kg body weight), and 10.5×10^5 cells in test group 3 (the high-dose HTHQ-administered group, 200 mg/kg body weight), and thus the effect of HTHQ administration was not found on day 10 after the administration of bleomycin.
When interstitial pneumonia developed, the infiltration of alveolar macrophages to interstitial tissue occurs and thus the alveolar macrophage number in BAL fluid increases. The alveolar macrophage numbers on day 10 after the administration of bleomycin were as follows: 1.45×10^5 cells in the control group, 4.5×10^5 cells in test group 1 (the bleomycin-single administration group), 1.99×10^5 cells in test group 2 (the low-dose HTHQ-administered group), and 3.24×10^5 cells in test group 3 (the high-dose HTHQ-administered group), and thus the effect of HTHQ administration was not found on day 10 after the administration of bleomycin. However, on day 20 after the administration, while the alveolar macrophage number of the bleomycin-single administration group was 5.5×10^5 cells, the alveolar macrophage number of the low-dose HTHQ-administered group was 3×10^5 cells and the alveolar macrophage number of the high-dose HTHQ-administered group was decreased to 2×10^5 cells.
When interstitial pneumonia developed, the infiltration of inflammatory cells of neutrophils to interstitial tissue occurs and thus the neutrophil number in BAL fluid increases. The neutrophil numbers on day 10 after the administration of bleomycin were as follows: 1.04×10^4 cells in the control group, 2.28×10^5 cells in test group 1 (the bleomycin-single administration group), 1.44×10^5 cells in test group 2 (the low-dose HTHQ-administered group), and 5.83×10^5 cells in test group 3 (the high-dose HTHQ-administered group), and thus the effect of HTHQ was not found on day 10 after the administration of bleomycin. […]

[5] = Test group 1: bleomycin 7.5 mg/kg alone, day 10
[6] = bleomycin 7.5 mg/kg alone, day 20

Compound: Nc1c(Br)cc(Br)cc1CN[C@H]1CC[C@H](O)CC1 [ambroxol, Ambroxol, reference compound]
- sputum excretion ability (sputum excretion): 41.1%

Compound: bleomycin [reference compound]
- body weight ([1]; test groups 1 to 3, bleomycin 7.5 mg/kg single dose, during the test period): gradually decreased
- relative weight of lungs ([1]; test groups 1 to 3, bleomycin 7.5 mg/kg, compared to the control group, p<0.01): significantly increased
- gross pathology of lungs [2]: delomorphous nodules as well as many dark red and light red ecchymoses were observed
- histopathologic findings of lungs ([3]; day 10): pulmonary fibrosis has progressed
- Severity score: Alveolar space, Bleeding ([3]; day 20 after bleomycin): +
- Severity score: Alveolar space, Macrophage accumulation ([3]; day 20 after bleomycin): +++
- Severity score: Alveolar space, Protein exudation ([3]; day 20 after bleomycin): +++
- Severity score: Alveolar wall, Fibroblast accumulation ([3]; day 20 after bleomycin): +++
- Severity score: Alveolar wall, Fibrosis of interstitial tissue ([3]; day 20 after bleomycin): +++
- Severity score: Alveolar wall, Interstitial edema ([3]; day 20 after bleomycin): +
- Severity score: Alveolar wall, Mononuclear cell infiltration ([3]; day 20 after bleomycin): +++
- Severity score: Circumvascular region, Perivascular edema ([3]; day 20 after bleomycin): +
- Severity score: Circumvascular region, Plasma cell infiltration ([3]; day 20 after bleomycin): +
- Severity score: Peribronchial and peribronchiolar regions, Fibrosis of interstitial tissue ([3]; day 20 after bleomycin): +++
- Severity score: Peribronchial and peribronchiolar regions, Lymphoid follicle hyperplasia ([3]; day 20 after bleomycin): ++
- Severity score: Type II alveolar epithelial cell, Adenomatous hyperplasia ([3]; day 20 after bleomycin): ++
- Severity score: Type II alveolar epithelial cell, Atypia and dysplasia ([3]; day 20 after bleomycin): ++
- alveolar macrophage number in BAL fluid [4, 5]: 4.5×10^5 cells
- lymphocyte number in BAL fluid [4, 5]: 2.72×10^5 cells
- neutrophil number in BAL fluid [4, 5]: 2.28×10^5 cells
- total cell number in BAL fluid [4, 5]: 9×10^5 cells
- alveolar macrophage number in BAL fluid [4, 6]: 5.5×10^5 cells
- lymphocyte number in BAL fluid [4, 6]: 2.09×10^5 cells
- neutrophil number in BAL fluid [4, 6]: 4.97×10^5 cells
- total cell number in BAL fluid [4, 6]: 12.8×10^5 cells
